Results taken from US20100303754A1, “PROCESS FOR PREPARATION OF CYCLODEXTRIN OLIGOMERS OR POLYMERS, PRODUCTS OBTAINED AND USES” (BIOCYDEX, priority 2006, published 2010).
Converted amounts (≈) assume the structure as drawn.

Assay: Solubilization tests of active ingredients by cyclodextrin dimers/trimer (soluble fraction analysed by CLHP)
Type: physicochemical
Conditions: thermodynamic from solid; Water alone, no cyclodextrin oligomer; stirred 24 hours; read-out: Amount of active ingredient solubilized in water
Experimental: Each solution is stirred for 24 hours, and then the soluble fractions are analyzed by CLHP after ultracentrifuging and filtration.
Molecule `CCC(=O)O[C@]1(C(=O)SCF)[C@H](C)C[C@H]2[C@@H]3C[C@H](F)C4=CC(=O)C=C[C@]4(C)[C@@]3(F)[C@@H](O)C[C@@]21C` [Fluticasone Propionate] has a solubility at 24 h of 0.1 µg/mL (≈ 0.2 µM).
Molecule `CC[C@H]1OC(=O)[C@H](C)[C@@H](O[C@H]2C[C@@](C)(OC)[C@@H](O)[C@H](C)O2)[C@H](C)[C@@H](O[C@@H]2O[C@H](C)C[C@H](N(C)C)[C@H]2O)[C@](C)(O)C[C@@H](C)/C(=N\OCOCCOC)[C@H](C)[C@@H](O)[C@]1(C)O` [Roxithromycin] has a solubility at 24 h of 464 µg/mL (≈ 555 µM).
`CC(=O)O[C@H]1C(=O)[C@@]2(C)[C@H]([C@H](OC(=O)c3ccccc3)[C@]3(O)C[C@H](OC(=O)[C@H](O)[C@@H](NC(=O)c4ccccc4)c4ccccc4)C(C)=C1C3(C)C)[C@]1(OC(C)=O)CO[C@@H]1C[C@@H]2O` [Taxol] showed a solubility at 24 h of 0.7 µg/mL (≈ 0.82 µM).
Molecule `CC(=O)O[C@@]12CO[C@@H]1C[C@H](O)[C@@]1(C)C(=O)[C@H](O)C3=C(C)[C@@H](OC(=O)[C@H](O)[C@@H](NC(=O)OC(C)(C)C)c4ccccc4)C[C@@](O)([C@@H](OC(=O)c4ccccc4)[C@H]21)C3(C)C` [Taxotere] has a solubility at 24 h of 4 µg/mL (≈ 4.95 µM).
With `C[C@@H](c1ncncc1F)[C@](O)(Cn1cncn1)c1ccc(F)cc1F` [Voriconazole] the solubility at 24 h was 685 µg/mL (≈ 1960 µM).
